Test results as given in article PMC12298648, “An Evaluation of the Cytotoxicity and Safety Profile of Usnic Acid for a Broad Panel of Human Cancers and Normal Cells with Respect to Its Enantiospecificity” (Molecules, 2025).
In brackets after ≈: the same amount, converted by molar mass. Read-outs that look alike come from different tables or passages of the source.

Key:
[1] = tested on: TPC-1; assay: MTT viability assay, TPC-1 papillary thyroid carcinoma cells; assay type: cell-based, human; settings: for IC50: Homo sapiens, TPC1; for Cell viability: TPC-1, 24 h
Text: (§1) Cell lines of different origins were used in the study and grouped as follows: prostate panel (human prostate carcinomas: DU145, derived from metastatic site: brain; grade IV PC3, derived from metastatic site: bone; LNCaP, derived from the metastatic site: lymph node; prostate epithelial, PNT2), colon panel (colorectal adenocarcinomas: HT29, originating from a primary tumor; Duke’s type C DLD-1, with the potential to lymph node metastasis; highly metastatic HCT116; colon epithelial cells CCD 841 CoN), thyroid panel (follicular thyroid carcinoma FTC133, anaplastic thyroid carcinoma 8505C, papillary thyroid carcinoma TPC-1, normal thyroid follicular epithelial Nthy-ori 3–1), breast panel (ER-positive breast adenocarcinoma MCF7, ER-negative breast adenocarcinoma MDA-MB-231, breast epithelial MCF10A), brain panel (neuroblastoma SH-SY5Y, glioblastoma U-87 MG, murine astrocytes C8D1A). All cell lines were purchased from Merck (Darmstadt, Germany).
(§2) Cells were grown under standard conditions (37 °C, 5% CO2) and culture media (DMEM/F12 for PNT2, PC3, FTC133, 8505 C, MDA-MB-231, TPC-1; DMEM Low Glucose for DU145; DMEM High Glucose for HCT116, DLD-1, SH-SY5Y, U87MG, C8D1A; MEM with NEAA for MCF7; MEM for CCD 841 CoN; McCoy’s for HT29; RPMI1640 with sodium pyruvate for LNCaP; DMEM/F12 with 20 ng/mL epidermal growth factor (EGF), 10 μg/mL insulin, 0.5 μg/mL hydrocortisone, 100 ng/mL cholera toxin) for MCF10A), supplemented with 10% fetal bovine serum (FBS) or 5% donor horse serum for MCF10A, and 1% antibiotics solution (10,000 U penicillin and 10 mg streptomycin/mL). The tested substances were prepared as 10 mg/mL stock solutions in DMSO and further diluted in the culture media to the working concentrations. Cells were treated with UA enantiomers at the concentration range of 0–50 µg/mL. The influence of DMSO on cell viability was also examined, with the final concentration […], and no toxic effect was noted.
(§3) The cells were seeded onto 96-well plates at a density of 1.5 × 10^4 cells/well. After 24 h UA enantiomers were added. Cell viability was determined after 24, 48, and 72 h by the MTT assay, as described previously. Doxorubicin was used as a reference cytostatic drug. All analyses were performed in triplicate; cell viability was expressed as % of control, untreated cells (mean ± SD), and IC50 values (concentration at which cell viability is inhibited by 50%), if possible.
(§4) The selectivity index (SI) was calculated, if possible, by dividing the IC50 value obtained for non-cancerous cells line by the IC50 values obtained for appropriate cancer cell line, as described previously. […] The values above 3 indicate good selectivity.

[2] = tested on: FTC133; assay: MTT viability assay, FTC133 follicular thyroid carcinoma cells; assay type: cell-based, human; settings: for Cell viability: FTC-133, 24 h; for IC50: Homo sapiens, FTC-133
Text: as §1, §2, §3, §4

[3] = tested on: SH-SY5Y; assay: MTT viability assay, neuroblastoma SH-SY5Y cells; assay type: cell-based, human; settings: SHSY5Y, 24 h
Text: as §1, §2, §3

[4] = tested on: DLD-1; assay: MTT viability assay, DLD-1 colon cancer cells; assay type: cell-based, human; settings: for Cell viability: DLD-1, 24 h; for IC50: Homo sapiens
Text: as §1, §2, §3

[5] = tested on: glioblastoma U251 cells; design: method as in PMID 18558490; settings: U251, 72 h, cited from earlier work
[6] = tested on: LNCaP; assay: MTT viability assay, LNCaP prostate cancer cells; assay type: cell-based, human; settings: for Cell viability: 24 h; for IC50: Homo sapiens
Text: as §1, §2, §3

[7] = tested on: 8505C; assay: MTT viability assay, 8505C anaplastic thyroid carcinoma cells; assay type: cell-based, human; settings: for Cell viability: 24 h; for IC50: Homo sapiens
Text: as §1, §2, §3

[8] = tested on: DU145 cells; settings: DU145, 72 h, cited from earlier work
[9] = tested on: HepG2 cells; design: method as in PMID 40368021; settings: cited from earlier work
[10] = tested on: MCF10A; assay: MTT viability assay, normal breast epithelial cells; assay type: cell-based, human; settings: for IC50: Homo sapiens, MCF-10A, MCF10A normal cells; for Cell viability: MCF10A, 24 h
Text: as §1, §2, §3

[11] = tested on: HT29 cells; settings: HT29, 48 h, cited from earlier work
[12] = recalculated from µM by the authors

SMILES: CC(=O)C1=C(O)C=C2Oc3c(C(C)=O)c(O)c(C)c(O)c3[C@]2(C)C1=O [UA(−), (−)-usnic acid]
- IC50 ([1]; TPC-1, 48 h): > 50 µg/mL
- IC50 ([1]; TPC-1, 72 h): 39.2 µg/mL (≈ 114 µM)
- selectivity index (SI) ([1]; IC50 Nthy ori 3-1 / IC50 TPC-1, 72 h): 0.74
- Cell viability ([1]; 2.5 µg/mL): 96.85 % of control
- Cell viability ([1]; 5 µg/mL): 104.40 % of control
- Cell viability ([1]; 10 µg/mL): 96.79 % of control
- Cell viability ([1]; 20 µg/mL): 93.49 % of control
- Cell viability ([1]; 30 µg/mL): 91.95 % of control
- Cell viability ([1]; 40 µg/mL): 92.26 % of control
- Cell viability ([1]; 50 µg/mL): 92.38 % of control
- Cell viability ([2]; 2.5 µg/mL): 108.51 % of control
- Cell viability ([2]; 5 µg/mL): 106.14 % of control
- Cell viability ([2]; 10 µg/mL): 87.63 % of control
- Cell viability ([2]; 20 µg/mL): 89.56 % of control
- Cell viability ([2]; 30 µg/mL): 93.33 % of control
- Cell viability ([2]; 40 µg/mL): 86.67 % of control
- Cell viability ([2]; 50 µg/mL): 83.25 % of control
- IC50 ([2]; FTC133, 48 h): > 50 µg/mL
- IC50 ([2]; FTC133, 72 h): 35.3 µg/mL (≈ 103 µM)
- selectivity index (SI) ([2]; IC50 Nthy ori 3-1 / IC50 FTC133, 72 h): 0.83
- Cell viability ([3]; 2.5 µg/mL): 96.79 % of control
- Cell viability ([3]; 5 µg/mL): 99.17 % of control
- Cell viability ([3]; 10 µg/mL): 98.10 % of control
- Cell viability ([3]; 20 µg/mL): 96.67 % of control
- Cell viability ([3]; 30 µg/mL): 92.62 % of control
- Cell viability ([3]; 40 µg/mL): 98.57 % of control
- Cell viability ([3]; 50 µg/mL): 99.40 % of control
- Cell viability ([4]; 2.5 µg/mL): 100.75 % of control
- Cell viability ([4]; 5 µg/mL): 97.99 % of control
- Cell viability ([4]; 10 µg/mL): 92.05 % of control
- Cell viability ([4]; 20 µg/mL): 81.25 % of control
- Cell viability ([4]; 30 µg/mL): 78.35 % of control
- Cell viability ([4]; 40 µg/mL): 77.75 % of control
- Cell viability ([4]; 50 µg/mL): 77.98 % of control
- IC50 ([4]; DLD-1, 48 h): 44.3 µg/mL (≈ 129 µM)
- IC50 ([4]; DLD-1, 72 h): 15.4 µg/mL (≈ 44.7 µM)
- IC50 [5, 12]: 6.8 µg/mL
- IC50 ([5]; read-out: IC50): 19.7 µM
- Cell viability ([6]; 2.5 µg/mL): 100.45 % of control
- Cell viability ([6]; 5 µg/mL): 98.18 % of control
- Cell viability ([6]; 10 µg/mL): 88.48 % of control
- Cell viability ([6]; 20 µg/mL): 85.30 % of control
- Cell viability ([6]; 30 µg/mL): 81.97 % of control
- Cell viability ([6]; 40 µg/mL): 79.09 % of control
- Cell viability ([6]; 50 µg/mL): 89.39 % of control
- IC50 ([6]; 48 h): > 50 µg/mL
- IC50 ([6]; 72 h): > 50 µg/mL
- Cell viability ([7]; 2.5 µg/mL): 105.18 % of control
- Cell viability ([7]; 5 µg/mL): 107.97 % of control
- Cell viability ([7]; 10 µg/mL): 100.80 % of control
- Cell viability ([7]; 20 µg/mL): 100.00 % of control
- Cell viability ([7]; 30 µg/mL): 102.79 % of control
- Cell viability ([7]; 40 µg/mL): 103.98 % of control
- Cell viability ([7]; 50 µg/mL): 94.42 % of control
- IC50 ([7]; 48 h): > 50 µg/mL
- IC50 ([7]; 72 h): > 50 µg/mL
- IC50 [8, 12]: 15.8 µg/mL
- IC50 ([8]; read-out: IC50): 45.9 µM
- IC50 (hepatotoxicity) ([9]; HepG2, 48 h): 16.0 µg/mL (≈ 46.5 µM)
- IC50 (hepatotoxicity) ([9]; HepG2, 72 h): 18.3 µg/mL (≈ 53.1 µM)
- IC50 ([10]; 48 h): > 50 µg/mL
- IC50 ([10]; 72 h): > 50 µg/mL
- Cell viability ([10]; 2.5 µg/mL): 102.83 % of control
- Cell viability ([10]; 5 µg/mL): 100.30 % of control
- Cell viability ([10]; 10 µg/mL): 101.52 % of control
- Cell viability ([10]; 20 µg/mL): 98.59 % of control
- Cell viability ([10]; 30 µg/mL): 100.10 % of control
- Cell viability ([10]; 40 µg/mL): 103.54 % of control
- Cell viability ([10]; 50 µg/mL): 99.39 % of control
- IC50 [11, 12]: 18.9 µg/mL
- IC50 ([11]; read-out: IC50): 55 µM
